From PMC9851200, “Multiparameter phenotypic screening for endogenous TFEB and TFE3 translocation identifies novel chemical series modulating lysosome function” (Autophagy, 2022)
Like-named read-outs stand apart in the source and are kept apart here.

Assays:
endogenous TFEB = test: TFEB nuclear translocation, immunocytochemistry high-content imaging; format: cell-based
endogenous TFE3 = test: TFE3 nuclear translocation, immunocytochemistry high-content imaging; format: cell-based
SH-SY5Y cells [1] = test system: SH-SY5Y cells; note: reference of the scale not given here
SH-SY5Y cells [2] = test: AK (adenylate kinase) release ToxiLight cytotoxicity assay; conditions: PKIS2 primary screening; note: reference of the scale not given here
SH-SY5Y cells [3] = test: Nuclear count from microscopy images (cellular growth and toxicity); conditions: PKIS2 primary screening; note: reference of the scale not given here
[4] = PKIS2 primary screening, DQ Red BSA intensity
[5] = PKIS2 primary screening, DQ Red BSA spot count

SMILES	TFEB % (endogenous TFEB; PKIS2 primary screening) [%]	TFE3 % (endogenous TFE3; PKIS2 primary screening) [%]	DQ Intensity (SH-SY5Y cells [1]; [4])	DQ Spot (SH-SY5Y cells [1]; [5])	AK (SH-SY5Y cells [2])	Nuclear Count (SH-SY5Y cells [3])	DQ Intensity (SH-SY5Y cells [1]; PKIS2 primary screening)	DQ Spot (SH-SY5Y cells [1]; PKIS2 primary screening)	DQ Intensity (SH-SY5Y cells [1])	DQ Spot (SH-SY5Y cells [1])	TFEB % (endogenous TFEB) [%]	TFE3 % (endogenous TFE3) [%]
COc1cc(Nc2nccc(N3CCC(NC(=O)Nc4cccc(C(C)=O)c4)C3)n2)cc(OC)c1OC (stereo not drawn) [GSK1379753]	2.90	10.72	96.48	93.76	112.38	116.36						
COc1ccc(-n2cnc3c(N)ncnc32)cc1 [UNC10225413A]	5.09	13.51			68.21	102.02	106.51	108.81				
COc1cc(Nc2nccc(N3CCC(NC(=O)c4cc5ccccc5s4)C3)n2)cc(OC)c1OC (stereo not drawn) [GSK1379760]	5.00	8.33	67.71	93.69	89.79	107.53						
COc1cc2c(Nc3ccc(NC(=O)c4ccccc4)cc3)ncnc2cc1OCCCN1CCOCC1 [UNC10225250A]	4.27	6.21			83.23	140.08			81.48	82.98		
CCS(=O)(=O)c1ccc(OC)c(Nc2nccc(-c3c(-c4cccc(NC(=O)c5c(F)cccc5F)c4)nn4ncccc34)n2)c1 [UNC10225342A]	6.81	13.07			86.17	104.33	69.43	80.86				
CCn1c(-c2ccccn2)nc2cnccc21 [UNC10225156A]	4.22	11.71			96.85	94.90	124.07	112.23				
N#CCc1ccc(Nc2nccc(Nc3ccc(Oc4ccccc4)cc3)n2)cc1 [GW639905]	8.66	15.01	108.02	113.65	115.45	107.11						
Cc1cc(N2CCC(NS(=O)(=O)c3ccc(F)cc3)CC2)nc(Nc2cccc(C#N)c2)n1 [GSK1653537]	10.28	18.21	104.60	98.84	183.29	84.44						
COc1ccc(NC(=O)c2ccoc2)cc1-c1ccc(C(=O)NCC2CC2)cc1 [UNC10225046A]	6.55	9.04			86.14	104.87	103.40	103.73				
NS(=O)(=O)c1cccc(-c2ccc3ncc(N4CCOCC4)nc3c2)c1 [UNC10225400A]	4.14	6.51	83.02	88.90	95.42	118.72						
O=C(Nc1ccccc1F)NC1CCN(c2ccnc(Nc3ccc(F)cc3)n2)CC1 [GSK1379800]	6.86	9.18	95.32	97.06	198.42	118.12						
CC[C@@H]1CO[C@H](C(=O)Nc2ccccc2)CN1c1cc(-c2ccc3c(N)n[nH]c3c2)nc(NC)n1 [GSK2376236]	3.52	8.81	102.90	87.99	114.69	121.19						
COc1ccc(Nc2nccc(N3CCC(NC(=O)Nc4ccc5c(c4)OCO5)C3)n2)cc1 (stereo not drawn) [GSK1379745]	10.83	19.51	69.10	77.91	76.28	86.22						
c1ccc(-c2n[nH]cc2-c2ccnc3ccccc23)nc1 [UNC10225289A]					102.26	134.93			80.70	82.58	2.12	7.71
